Blank lines part the entries; values can stand above or below the molecule they belong to. The source made the active and inactive calls. The rule behind the calls is not given here.
Experiments:
HL-60 [1] = test: Cell cycle arrest in human HL60 cells assessed as accumulation at G0/G1 phase at IC50 after 24 hrs by propidium iodide staining based flow cytometric method (reference value: 51.7%); assay type: functional
HL-60 [2] = test: Cell cycle arrest in human HL60 cells assessed as accumulation at sub-G0/G1 phase at IC50 after 24 hrs by propidium iodide staining based flow cytometric method (reference value: 3.9%); assay type: functional
HL-60 [3] = test: Cell cycle arrest in human HL60 cells assessed as accumulation at G2/M-phase at IC50 after 24 hrs by propidium iodide staining based flow cytometric method (reference value: 14.06%); assay type: functional
HL-60 [4] = test: Cell cycle arrest in human HL60 cells assessed as accumulation at S-phase at IC50 after 24 hrs by propidium iodide staining based flow cytometric method (reference value: 34.24%); assay type: functional
MCF7 [5] = test: Induction of apoptosis in human MCF7 cells assessed as shrinkage of cell core at IC50 after 24 hrs by DAPI staining based immunofluorescence microscopic analysis; assay type: functional
MCF7 [6] = test: Induction of apoptosis in human MCF7 cells assessed as nuclear fragmentation at IC50 after 24 hrs by DAPI staining based immunofluorescence microscopic analysis; assay type: functional, cell-based
MCF7 [7] = test: Induction of apoptosis in human MCF7 cells assessed as reduction in cell size at IC50 after 24 hrs by DAPI staining based immunofluorescence microscopic analysis; assay type: functional
MCF7 [8] = test: Antiproliferative activity against human MCF7 cells after 24 hrs by XTT assay; assay type: functional, cell-based; conditions: MCF7, 24 h
MCF7 [9] = test: Induction of apoptosis in human MCF7 cells assessed as DNA condensation at IC50 after 24 hrs by DAPI staining based immunofluorescence microscopic analysis; assay type: functional, cell-based
DNA [10] = test: Binding affinity to Escherichia coli supercoiled pBR322 DNA assessed as more than 10 cross links per DNA molecule at 0.005 molar ratio per nucleotide incubated for 24 hrs under dark condition by tapping mode atomic force microscopic analysis (reference value: 1%); assay type: nucleic-acid assay
HL-60 [11] = test: Antiproliferative activity against human HL60 cells after 24 hrs by XTT assay; assay type: functional, cell-based; conditions: HL-60, 24 h
MCF7 [12] = test: Cell cycle arrest in human MCF7 cells assessed as accumulation at sub-G0/G1 phase at IC50 after 24 hrs by propidium iodide staining based flow cytometric method; assay type: functional
DNA [13] = test: Binding affinity to Escherichia coli supercoiled pBR322 DNA assessed as DNA undergoing kinks at 0.005 molar ratio per nucleotide incubated for 24 hrs under dark condition by tapping mode atomic force microscopic analysis; assay type: nucleic-acid assay
MCF7 [14] = test: Antiproliferative activity against human MCF7 cells after 72 hrs by XTT assay; assay type: functional, cell-based; conditions: MCF7, 72 h
MCF7 [15] = test: Cell cycle arrest in human MCF7 cells assessed as accumulation at G2/M-phase at IC50 after 24 hrs by propidium iodide staining based flow cytometric method; assay type: functional
DNA [16] = test: Binding affinity to Escherichia coli supercoiled pBR322 DNA assessed as 0 to 2 cross links per DNA molecule at 0.005 molar ratio per nucleotide incubated for 24 hrs under dark condition by tapping mode atomic force microscopic analysis (reference value: 49%); assay type: nucleic-acid assay
MCF7 [17] = test: Induction of apoptosis in human MCF7 cells assessed as cell blobbing at IC50 after 24 hrs by DAPI staining based immunofluorescence microscopic analysis; assay type: functional
HL-60 [18] = test: Induction of apoptosis in human HL60 cells assessed as viable cells at IC50 after 24 hrs by annexin-V-FITC/propidium iodide staining based flow cytometric analysis (reference value: 93.81%); assay type: functional
Calf thymus DNA = test: Binding affinity to calf thymus DNA at 0.1 to 0.5 molar ratio per nucleotide incubated for 24 hrs under dark condition by circular dichroism spectral analysis; assay type: nucleic-acid assay; conditions: Bos taurus
MCF7 [19] = test: Cell cycle arrest in human MCF7 cells assessed as accumulation at G0/G1 phase at IC50 after 24 hrs by propidium iodide staining based flow cytometric method; assay type: functional
DNA [20] = test: Binding affinity to Escherichia coli supercoiled pBR322 DNA assessed as DNA structural variation at 0.1 to 0.5 molar ratio per nucleotide incubated for 24 hrs under dark condition by ethidium bromide staining based agarose gel electrophoresis; assay type: nucleic-acid assay
DNA [21] = test: Binding affinity to Escherichia coli supercoiled pBR322 DNA assessed as DNA undergoing cross links at 0.005 molar ratio per nucleotide incubated for 24 hrs under dark condition by tapping mode atomic force microscopic analysis; assay type: nucleic-acid assay
HL-60 [22] = test: Antiproliferative activity against human HL60 cells after 72 hrs by XTT assay; assay type: functional, cell-based; conditions: HL-60, 72 h
HL-60 [23] = test: Induction of apoptosis in human HL60 cells assessed as late apoptotic cells at IC50 after 24 hrs by annexin-V-FITC/propidium iodide staining based flow cytometric analysis (reference value: 1.93%); assay type: functional
DNA [24] = test: Binding affinity to Escherichia coli supercoiled pBR322 DNA assessed as 3 to 5 cross links per DNA molecule at 0.005 molar ratio per nucleotide incubated for 24 hrs under dark condition by tapping mode atomic force microscopic analysis (reference value: 37%); assay type: nucleic-acid assay
DNA [25] = test: Binding affinity to Escherichia coli supercoiled pBR322 DNA assessed as supercoiled areas of plasmid DNA at 0.005 molar ratio per nucleotide incubated for 24 hrs under dark condition by tapping mode atomic force microscopic analysis (reference value: 3.5%); assay type: nucleic-acid assay
MCF7 [26] = test: Induction of apoptosis in human MCF7 cells assessed as nuclear condensation at IC50 after 24 hrs by DAPI staining based immunofluorescence microscopic analysis; assay type: functional, cell-based
DNA [27] = test: Binding affinity to Escherichia coli supercoiled pBR322 DNA assessed as 6 to 8 cross links per DNA molecule at 0.005 molar ratio per nucleotide incubated for 24 hrs under dark condition by tapping mode atomic force microscopic analysis (reference value: 12%); assay type: nucleic-acid assay
HL-60 [28] = test: Induction of apoptosis in human HL60 cells assessed as early apoptotic cells at IC50 after 24 hrs by annexin-V-FITC/propidium iodide staining based flow cytometric analysis (reference value: 4.2%); assay type: functional
MCF7 [29] = test: Induction of apoptosis in human MCF7 cells assessed as microtubule disintegration at IC50 after 24 hrs by indirect immunofluorescence analysis; assay type: functional, cell-based
MCF7 [30] = test: Cell cycle arrest in human MCF7 cells assessed as accumulation at S-phase at IC50 after 24 hrs by propidium iodide staining based flow cytometric method; assay type: functional
HL-60 [31] = test: Induction of apoptosis in human HL60 cells assessed as necrotic cells at IC50 after 24 hrs by annexin-V-FITC/propidium iodide staining based flow cytometric analysis (reference value: 0.06%); assay type: functional
DNA [32] = test: Binding affinity to Escherichia coli supercoiled pBR322 DNA assessed as 9 to 10 cross links per DNA molecule at 0.005 molar ratio per nucleotide incubated for 24 hrs under dark condition by tapping mode atomic force microscopic analysis (reference value: 2%); assay type: nucleic-acid assay
MCF7 [33] = test: Induction of apoptosis in human MCF7 cells assessed as formation of apoptotic bodies at IC50 after 24 hrs by DAPI staining based immunofluorescence microscopic analysis; assay type: functional, cell-based

Compound: COC(=O)Nc1nc2cc(C(=O)c3cccs3)ccc2[nH]1 [NOCODAZOLE]
Activity (HL-60 [1]): 45.28%
Activity (HL-60 [2]): 14.11%
Activity (HL-60 [3]): 33.46%
Activity (HL-60 [4]): 21.26%

IC50 (MCF7 [8]): 27.2 µM
Activity (DNA [10]): 1%
IC50 (HL-60 [11]): 3.05 µM
Activity (DNA [13]): inactive
IC50 (MCF7 [14]): 18.8 µM
Activity (DNA [16]): 51%
Activity (Calf thymus DNA): inactive
Activity (DNA [20]): inactive
Activity (DNA [21]): inactive
IC50 (HL-60 [22]): 3.24 µM
Activity (DNA [24]): 28%
Activity (DNA [25]): 3.6%
Activity (DNA [27]): 19%
Activity (DNA [32]): 1%
Compound: CC(=O)O[C@H](OCc1ccccc1)[C@]1(C)C(=O)[C@@H](I)C(=O)[C@@H](C)[C@@H]2CC[C@H]1O2
Activity (MCF7 [5]): Active
Activity (MCF7 [6]): Active
Activity (MCF7 [7]): Active
Activity (MCF7 [9]): Active
Activity (MCF7 [12]): Active
Activity (MCF7 [15]): inactive
Activity (MCF7 [17]): Active
Activity (HL-60 [18]): 55.71%
Activity (HL-60 [1]): 67.37%
Activity (MCF7 [19]): Active
Activity (HL-60 [2]): 31.14%
Activity (HL-60 [3]): 6.33%
Activity (HL-60 [23]): 26.85%
Activity (MCF7 [26]): Active
Activity (HL-60 [28]): 16.97%
Activity (HL-60 [4]): 26.31%
Activity (MCF7 [29]): Active
Activity (MCF7 [30]): Active
Activity (HL-60 [31]): 0.35%
Activity (MCF7 [33]): Active

IC50 (MCF7 [8]): > 250 µM
IC50 (HL-60 [11]): > 250 µM
IC50 (MCF7 [14]): > 250 µM
IC50 (HL-60 [22]): > 250 µM
Compound: C[C@H]1[C@H]2CC[C@H](O2)[C@]2(C)[C@@H](OCc3ccccc3)C(=O)C[C@]12O (relative stereo)

Reference: ChEMBL document CHEMBL4118201, “Design and synthesis of new antitumor agents with the 1,7-epoxycyclononane framework. Study of their anticancer action mechanism by a model compound” (Bioorg Med Chem, 2018)
